Data published in patent US6083932A, “Pharmaceutical compositions derived from ginseng and methods of treatment using same” (CV Technologies Inc., priority 1998, dated 2000).
Entries after “also recorded” stand apart in the source; their conditions may differ.

Experiments:
[1] = test system: L type calcium channel; assay: L type calcium channel currents in N1E115 neuroblastoma cells (whole-cell patch-clamp); format: cell-based, mouse; details: same concentration (100 μM); N1E-115 cells
Experimental: A study of the effects of HT1001 and some pure ginsenosides on calcium channel activity in cultured neuroblastoma cells was conducted.
Neuroblastoma Cell Culture. Mouse neuroblastoma cells (N1E115) were cultured in Dulbecco's modified Eagle's medium (GIBCO) containing 10% fetal bovine serum at 37° C. in a humidified atmosphere of 5% CO2 in air. The medium was changed every 3-4 days. After mechanical agitation, 3×10^4 cells were replanted in 35 mm tissue culture dishes containing 4 ml of bath solution. After cell attachment, the dish was mounted on the stage of an inverted phase-contrast microscope (Nikon) for Ca^2+ channel current recording. These cells expressed predominately T channel currents. In experiments where L channels were specifically sought, the cells were grown and maintained at confluence for 3-4 weeks under the same culture conditions with the addition of 2% (vol/vol) dimethyl sulfoxide. Three to five days before use, the cells were replanted with the same medium. These cells expressed predominately L channel currents. […]
Ca^2+ Channel Current Recording in Neuroblastoma Cells. […] Since the peak currents measured with 20 mM Ba^2+ as the charge carrier were usually small (about 200 pA) the series resistance compensation was not usually employed. […] For every single-cell recording, stable readings were first obtained for 5 min; the drug was then added to the bath solution. […]

[2] = target: T1, monoamine oxidase-A (Rattus norvegicus, UniProt P21396); assay: in vitro monoamine oxidase-A inhibiting activity (radiochemical, 5-hydroxytryptamine substrate); format: biochemical; details: read-out: % MAO-A Inhibition; for inhibition at 1000 µg/mL: 1.0 mg/ml; for inhibition at 10000 µg/mL: 10 mg/ml
T1 construct: homogenates of rat brain; from tissue; host or cells: rat brain homogenate
T1 sequence (P21396 1-526): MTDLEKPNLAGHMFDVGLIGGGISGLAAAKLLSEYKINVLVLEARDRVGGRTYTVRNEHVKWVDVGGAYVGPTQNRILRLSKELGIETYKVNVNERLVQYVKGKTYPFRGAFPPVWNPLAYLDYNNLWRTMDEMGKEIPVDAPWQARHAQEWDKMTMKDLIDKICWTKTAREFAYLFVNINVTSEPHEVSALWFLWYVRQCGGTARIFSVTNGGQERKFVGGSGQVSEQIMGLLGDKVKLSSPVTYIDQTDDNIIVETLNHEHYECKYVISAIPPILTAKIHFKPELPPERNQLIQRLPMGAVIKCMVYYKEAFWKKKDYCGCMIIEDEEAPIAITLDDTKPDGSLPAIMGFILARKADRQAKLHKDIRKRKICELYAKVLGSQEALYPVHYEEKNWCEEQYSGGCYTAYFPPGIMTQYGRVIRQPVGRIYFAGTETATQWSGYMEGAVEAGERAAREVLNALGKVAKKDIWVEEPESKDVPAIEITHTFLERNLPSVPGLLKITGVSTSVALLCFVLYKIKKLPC
Experimental: Example 1 is a study of the effects of several extracts of HT1001, PQ4, PQ5, PQ6 and pure ginsenosides, on monoamine oxidase A (MAO A) and monoamine oxidase B (MAO B) activity in vitro.
HT-1001, related extracts and pure ginsenosides were evaluated for in vitro monoamine oxidase-A and monoamine oxidase-B inhibiting activity using the radiochemical procedure of Lyles and Callingham, Biochem. Pharmacol. 31: 1417-1424 (1982), employing either radiolabelled 5-hydroxytryptamine or β-phenylethylamine as substrates for monoamine oxidase-A (MAO-A) or monoamine oxidase-B (MAO-B) respectively. Various concentrations of the compounds of interest were incubated in appropriately diluted homogenates of rat brain in a 0.2 M potassium phosphate buffer. After a 15 minute preincubation period the reaction was initiated by the addition of substrate. Incubations proceded at 37° C. for 10 minutes. Incubation was terminated by the addition of acid and the radiolabelled products (5-hydroxyindoleacetic acid, 5-hydroxyindoleacetaldehyde or phenylacetic acid, phenylacetaldehyde) were extracted and quantified by liquid scintillation counting procedures. Incubations were done in triplicate and incubations including pheneizine a known MAO inhibitor were included as controls and for comparison. The percent inhibition of monoamine oxidase-A or monoamine oxidase-B activity compared to controls containing no experimental material was calculated.

[3] = test system: 5-hydroxytryptamine; details: rat and mouse brain; Zhang et al 1990; cited from earlier work

SMILES | effect on L type calcium channel currents [1] | inhibition at 1000 µg/mL [2] [%] | inhibition at 10000 µg/mL [2] [%] | levels of 5-hydroxytryptamine and 5-hydroxyindoleacetic acid [3]
CC(C)=CCC[C@](C)(O[C@@H]1O[C@H](CO[C@@H]2O[C@H](CO)[C@@H](O)[C@H](O)[C@H]2O)[C@@H](O)[C@H](O)[C@H]1O)[C@H]1CC[C@]2(C)[C@@H]1[C@H](O)C[C@@H]1[C@@]3(C)CC[C@H](O[C@@H]4O[C@H](CO)[C@@H](O)[C@H](O)[C@H]4O[C@@H]4O[C@H](CO)[C@@H](O)[C@H](O)[C@H]4O)C(C)(C)[C@@H]3CC[C@]12C [Rb1, ginsenoside Rb1] | significant inhibitory effect; also recorded: inhibitory effects | -6.9 | 7.1 | decrease the levels
CC(C)=CCC[C@](C)(O[C@@H]1O[C@H](CO)[C@@H](O)[C@H](O)[C@H]1O)[C@H]1CC[C@]2(C)[C@@H]1[C@H](O)C[C@@H]1[C@@]3(C)CC[C@H](O)C(C)(C)[C@@H]3[C@@H](O[C@@H]3O[C@H](CO)[C@@H](O)[C@H](O)[C@H]3O)C[C@]12C [Rg1, ginsenoside Rg1] | significant inhibitory effect; also recorded: inhibitory effects | -10.8 | 5.1 | decrease the levels
